Measurements as given in ChEMBL document CHEMBL5465560, “Selectivity Literature for EUbOPEN Chemogenomic Library” (2024).
Blank lines part the entries; values can stand above or below the molecule they belong to.

Key:
[1] = target: Fibroblast growth factor receptor 3 (Homo sapiens, UniProt P22607); experiment: Selectivity interaction (Kinase panel (33PanQinase(R) Activity Assay)) EUB0000877a FGFR3
[2] = target: Tyrosine-protein kinase Fes/Fps (Homo sapiens) (UniProt P07332); experiment: Selectivity interaction (KinomeScan (DiscoverX)) EUB0000607a FES; conditions: at 10 µM
[3] = target: T1, Tyrosine-protein kinase ITK/TSK (Homo sapiens) (UniProt Q08881); experiment: Selectivity interaction (Kinase panel (Invitrogen)) EUB0000639a ITK; conditions: at 200 nM
T1 sequence (whole entry): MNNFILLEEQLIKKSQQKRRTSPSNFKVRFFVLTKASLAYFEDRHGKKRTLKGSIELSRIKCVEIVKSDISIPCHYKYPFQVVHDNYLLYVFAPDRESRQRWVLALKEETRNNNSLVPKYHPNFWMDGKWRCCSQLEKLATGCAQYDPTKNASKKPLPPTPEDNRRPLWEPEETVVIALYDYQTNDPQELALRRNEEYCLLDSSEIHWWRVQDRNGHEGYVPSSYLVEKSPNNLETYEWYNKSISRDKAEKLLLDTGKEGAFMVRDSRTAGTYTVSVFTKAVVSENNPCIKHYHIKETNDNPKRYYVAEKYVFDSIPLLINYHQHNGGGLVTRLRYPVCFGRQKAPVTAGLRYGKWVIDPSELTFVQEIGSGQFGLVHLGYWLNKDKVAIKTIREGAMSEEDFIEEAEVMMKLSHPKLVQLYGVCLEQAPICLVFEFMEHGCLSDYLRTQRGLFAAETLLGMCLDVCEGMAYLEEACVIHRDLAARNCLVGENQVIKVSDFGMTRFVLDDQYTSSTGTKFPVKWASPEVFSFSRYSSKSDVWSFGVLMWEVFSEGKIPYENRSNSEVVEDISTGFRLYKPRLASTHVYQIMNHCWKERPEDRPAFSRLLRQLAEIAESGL

[4] = target: T2, Tyrosine-protein kinase JAK3 (Homo sapiens) (UniProt P52333); experiment: Selectivity interaction (KinomeScan (DiscoverX)) EUB0000045b JAK3; conditions: at 1 µM
T2 sequence (whole entry): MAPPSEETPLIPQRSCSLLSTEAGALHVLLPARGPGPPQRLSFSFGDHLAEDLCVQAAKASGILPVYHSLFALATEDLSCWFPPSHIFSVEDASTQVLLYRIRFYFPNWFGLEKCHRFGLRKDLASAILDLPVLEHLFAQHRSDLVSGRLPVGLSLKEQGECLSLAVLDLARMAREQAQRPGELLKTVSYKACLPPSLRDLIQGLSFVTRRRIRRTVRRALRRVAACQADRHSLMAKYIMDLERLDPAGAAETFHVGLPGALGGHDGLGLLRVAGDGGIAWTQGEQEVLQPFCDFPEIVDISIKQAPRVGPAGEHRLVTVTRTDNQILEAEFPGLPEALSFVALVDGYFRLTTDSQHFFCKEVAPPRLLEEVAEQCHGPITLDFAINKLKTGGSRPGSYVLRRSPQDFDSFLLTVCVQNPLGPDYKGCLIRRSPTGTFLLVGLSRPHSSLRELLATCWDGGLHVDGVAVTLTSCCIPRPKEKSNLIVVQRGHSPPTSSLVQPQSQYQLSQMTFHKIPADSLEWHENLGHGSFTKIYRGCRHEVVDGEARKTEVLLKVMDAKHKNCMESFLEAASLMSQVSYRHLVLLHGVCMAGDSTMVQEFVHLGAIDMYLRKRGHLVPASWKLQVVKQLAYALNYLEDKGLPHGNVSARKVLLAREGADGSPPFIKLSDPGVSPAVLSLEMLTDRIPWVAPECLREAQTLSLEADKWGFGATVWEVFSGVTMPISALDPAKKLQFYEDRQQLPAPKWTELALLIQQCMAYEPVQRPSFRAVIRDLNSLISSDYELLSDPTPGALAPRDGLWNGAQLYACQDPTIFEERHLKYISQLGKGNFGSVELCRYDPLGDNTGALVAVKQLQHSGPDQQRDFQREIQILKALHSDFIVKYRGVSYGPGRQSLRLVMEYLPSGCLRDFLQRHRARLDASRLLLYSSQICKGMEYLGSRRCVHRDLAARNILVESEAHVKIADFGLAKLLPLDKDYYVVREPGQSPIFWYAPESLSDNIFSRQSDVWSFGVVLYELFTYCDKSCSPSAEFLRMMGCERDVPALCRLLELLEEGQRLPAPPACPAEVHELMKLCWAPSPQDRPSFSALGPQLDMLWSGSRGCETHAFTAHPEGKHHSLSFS

[5] = target: T3, Aurora kinase A (Homo sapiens) (UniProt O14965); experiment: Selectivity interaction (KinomeScan (DiscoverX)) EUB0000092b STK6; conditions: at 10 µM
T3 sequence (whole entry): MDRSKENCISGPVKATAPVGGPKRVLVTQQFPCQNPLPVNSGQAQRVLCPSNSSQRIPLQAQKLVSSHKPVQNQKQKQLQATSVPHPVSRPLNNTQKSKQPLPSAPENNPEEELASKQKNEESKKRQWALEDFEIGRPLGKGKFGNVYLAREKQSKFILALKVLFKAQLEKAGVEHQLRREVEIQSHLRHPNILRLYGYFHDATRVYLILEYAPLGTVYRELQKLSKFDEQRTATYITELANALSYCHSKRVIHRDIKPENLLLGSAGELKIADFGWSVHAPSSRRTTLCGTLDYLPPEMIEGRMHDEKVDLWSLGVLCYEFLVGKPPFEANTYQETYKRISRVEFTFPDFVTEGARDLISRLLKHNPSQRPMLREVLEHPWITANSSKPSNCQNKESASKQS

Chain of Tyrosine-protein kinase Fes/Fps (Homo sapiens) (P07332 whole entry): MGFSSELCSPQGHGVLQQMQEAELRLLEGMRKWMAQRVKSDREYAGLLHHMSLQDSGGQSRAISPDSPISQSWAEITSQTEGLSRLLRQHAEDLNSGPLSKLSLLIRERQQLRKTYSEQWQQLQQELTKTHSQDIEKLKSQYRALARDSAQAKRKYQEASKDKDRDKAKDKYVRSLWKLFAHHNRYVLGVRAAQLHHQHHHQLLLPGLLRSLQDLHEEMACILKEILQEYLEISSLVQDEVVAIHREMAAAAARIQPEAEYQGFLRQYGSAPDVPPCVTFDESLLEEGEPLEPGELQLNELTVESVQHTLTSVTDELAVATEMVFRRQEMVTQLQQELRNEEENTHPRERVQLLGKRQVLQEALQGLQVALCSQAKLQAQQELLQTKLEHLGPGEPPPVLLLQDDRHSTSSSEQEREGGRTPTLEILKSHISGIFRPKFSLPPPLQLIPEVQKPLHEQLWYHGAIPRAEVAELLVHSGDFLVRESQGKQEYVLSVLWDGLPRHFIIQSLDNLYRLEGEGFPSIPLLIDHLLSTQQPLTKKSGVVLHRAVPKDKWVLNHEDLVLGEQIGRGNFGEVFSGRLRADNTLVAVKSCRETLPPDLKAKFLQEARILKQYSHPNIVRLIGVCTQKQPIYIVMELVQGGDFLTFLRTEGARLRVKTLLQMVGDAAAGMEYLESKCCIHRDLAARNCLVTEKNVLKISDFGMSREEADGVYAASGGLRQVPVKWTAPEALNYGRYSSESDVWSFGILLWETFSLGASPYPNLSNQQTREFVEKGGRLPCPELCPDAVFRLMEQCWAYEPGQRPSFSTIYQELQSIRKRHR
Chain of Fibroblast growth factor receptor 3 (P22607 whole entry): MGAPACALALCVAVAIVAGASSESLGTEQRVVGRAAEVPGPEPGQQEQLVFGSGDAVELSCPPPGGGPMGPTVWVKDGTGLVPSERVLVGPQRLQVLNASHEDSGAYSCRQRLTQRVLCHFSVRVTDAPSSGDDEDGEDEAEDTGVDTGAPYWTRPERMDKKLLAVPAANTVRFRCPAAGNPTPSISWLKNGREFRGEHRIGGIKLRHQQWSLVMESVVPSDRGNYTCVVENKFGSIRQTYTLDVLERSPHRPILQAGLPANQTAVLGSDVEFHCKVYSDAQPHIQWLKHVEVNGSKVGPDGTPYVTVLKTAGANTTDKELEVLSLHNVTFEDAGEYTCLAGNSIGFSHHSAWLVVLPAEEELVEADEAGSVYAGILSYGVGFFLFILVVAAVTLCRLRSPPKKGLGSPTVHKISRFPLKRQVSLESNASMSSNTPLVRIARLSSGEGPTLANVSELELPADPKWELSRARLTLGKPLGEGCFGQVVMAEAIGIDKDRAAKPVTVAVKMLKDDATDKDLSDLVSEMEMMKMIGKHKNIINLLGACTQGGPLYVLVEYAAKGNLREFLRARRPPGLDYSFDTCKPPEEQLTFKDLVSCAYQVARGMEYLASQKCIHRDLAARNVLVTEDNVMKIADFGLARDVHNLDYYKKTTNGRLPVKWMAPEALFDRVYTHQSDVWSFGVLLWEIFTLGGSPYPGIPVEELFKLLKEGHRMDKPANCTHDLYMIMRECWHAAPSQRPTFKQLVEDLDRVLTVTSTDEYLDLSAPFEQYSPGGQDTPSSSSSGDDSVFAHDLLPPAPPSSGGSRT

- IC50 [1]: > 10 µM
Compound: CCC(=O)N1CC[C@H](Nc2ncnc3c2CN(c2cnc(OC)c(C(F)(F)F)c2)CC3)C1 [LENIOLISIB]

Compound: CNC(=O)Nc1ccc(-c2nc(N3CC4CCC(C3)O4)c3cnn(C4CCC5(CC4)OCCO5)c3n2)cc1
- % of control [2]: 100%

- % of inhibition [3]: -1.94%
Compound: CC[C@@H]1[C@H](F)C(=O)N[C@@H]1COc1nccc2cc(C(N)=O)c(OC)cc12 [ZIMLOVISERTIB]

Compound: C=CC(=O)Nc1cc(-n2c(=O)ccc3cnc4ccc(-c5ccc(NS(C)(=O)=O)cc5)cc4c32)ccc1C
- % of control [4]: 6.6%

Compound: CCC(=O)N1CCN(c2ccc(-n3c(=O)ccc4cnc5ccc(-c6cnc7ccccc7c6)cc5c43)cc2C(F)(F)F)CC1
- % of control [5]: 100%
